Experimental data reported in patent publication US6355799B1, “Substituted benzene compounds, process for their preparation, and herbicidal and defoliant compositions containing them” (ISK Americas Incorporated, priority 1997, dated 2002).

How the values were obtained:
Assay type in all cases: in vivo
[1] = system: velvetleaf (Abutilon theophrasti, ABUTH); test: Pre-emerge test, greenhouse herbicide activity screening; settings: for Pre-emerge Herbicidal Activity, phytotoxicity rating (0-100), ABUTH: rated 14 days after application, 0 = no damage, 100 = complete death; for Pre-emerge herbicidal activity, phytotoxicity rating ABUTH: rating scale 0-100, 14 days after application
Outline: (§1)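 Applied at 15–1000 g ai/ha from acetone in 187 l/ha spray volume. Post-emergence applications included 0.25% v/v non-ionic surfactant and reached plants sown 8–21 days before. Pre-emergence applications were incorporated by surface watering. Efficacy or crop damage was rated on a 0–100 scale after 14 days.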

[2] = system: common ragweed (Ambrosia artemisizfolia L., AMBEL); test: as above; settings: for Pre-emerge Herbicidal Activity, phytotoxicity rating (0-100), AMBEL: rated 14 days after application, 0 = no damage, 100 = complete death; for Pre-emerge herbicidal activity, phytotoxicity rating AMBEL: rating scale 0-100, 14 days after application
Outline: as §1

[3] = system: sicklepod (Cassia obtusifolia, CASOB); test: as above; settings: for Pre-emerge Herbicidal Activity, phytotoxicity rating (0-100), CASOB: rated 14 days after application, 0 = no damage, 100 = complete death; for Pre-emerge herbicidal activity, phytotoxicity rating CASOB: rating scale 0-100, 14 days after application
Outline: as §1

[4] = system: lambsquarters (Chenopodium album, CHEAL); test: as above; settings: for Pre-emerge Herbicidal Activity, phytotoxicity rating (0-100), CHEAL: rated 14 days after application, 0 = no damage, 100 = complete death; for Pre-emerge herbicidal activity, phytotoxicity rating CHEAL: rating scale 0-100, 14 days after application
Outline: as §1

[5] = system: ivyleaf morningglory (Ipomoea hederacea, IPOHE); test: as above; settings: for Pre-emerge Herbicidal Activity, phytotoxicity rating (0-100), IPOHE: rated 14 days after application, 0 = no damage, 100 = complete death; for Pre-emerge herbicidal activity, phytotoxicity rating IPOHE: rating scale 0-100, 14 days after application
Outline: as §1

[6] = system: green foxtail (Setaria viridis, SETVI); test: as above; settings: for Pre-emerge Herbicidal Activity, phytotoxicity rating (0-100), SETVI: rated 14 days after application, 0 = no damage, 100 = complete death; for Pre-emerge herbicidal activity, phytotoxicity rating SETVI: rating scale 0-100, 14 days after application
Outline: as §1

[7] = system: large crabgrass (Digitaria sanguinalis, DIGSA); test: as above; settings: for Pre-emerge Herbicidal Activity, phytotoxicity rating (0-100), DIGSA: rated 14 days after application, 0 = no damage, 100 = complete death; for Pre-emerge herbicidal activity, phytotoxicity rating DIGSA: rating scale 0-100, 14 days after application
Outline: as §1

[8] = system: johnsongrass (Sorghum halepense, SORHA); test: as above; settings: for Pre-emerge Herbicidal Activity, phytotoxicity rating (0-100), SORHA: rated 14 days after application, 0 = no damage, 100 = complete death; for Pre-emerge herbicidal activity, phytotoxicity rating SORHA: rating scale 0-100, 14 days after application
Outline: as §1

[9] = system: barnyardgrass (Echinochloa crus-galli, ECHCG); test: as above; settings: for Pre-emerge Herbicidal Activity, phytotoxicity rating (0-100), ECHCG: rated 14 days after application, 0 = no damage, 100 = complete death; for Pre-emerge herbicidal activity, phytotoxicity rating ECHCG: rating scale 0-100, 14 days after application
Outline: as §1

[10] = system: redroot pigweed (Amaranthus retroflexus, AMARE); test: as above; settings: for Pre-emerge Herbicidal Activity, phytotoxicity rating (0-100), AMARE: rated 14 days after application, 0 = no damage, 100 = complete death; for Pre-emerge herbicidal activity, phytotoxicity rating AMARE: rating scale 0-100, 14 days after application
Outline: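 Herbicidal damage is scored 0 (none) to 100 (complete plant death) two weeks after a simulated field spray. Rates span 15–1000 g ai/ha, delivered in acetone at 187 l/ha. For post-emergence treatments, plants have 2–3 leaves and the spray carries 0.25% v/v non-ionic surfactant.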

[11] = system: velvetleaf (Abutilon theophrasti, ABUTH); test: Post-emerge test, greenhouse herbicide activity screening; settings: for phytotoxicity rating ABUTH: rating scale 0-100
Outline: (§2)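 Plants grown in 10 cm pots of sandy loam mix received acetone-dissolved compounds through a moving flat-fan nozzle. Doses ranged from 15 to 1000 g ai/ha. Pre-emerge pots were seeded one day earlier, post-emerge pots 8–21 days earlier. Fourteen days on, each pot was graded 0–100 for damage.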

[12] = system: sicklepod (Cassia obtusifolia, CASOB); test: as above; settings: for phytotoxicity rating CASOB: rating scale 0-100
Outline: as §2

[13] = system: lambsquarters (Chenopodium album, CHEAL); test: as above; settings: for phytotoxicity rating CHEAL: rating scale 0-100
Outline: as §2

[14] = system: ivyleaf morningglory (Ipomoea hederacea, IPOHE); test: as above; settings: for phytotoxicity rating IPOHE: rating scale 0-100
Outline: as §2

[15] = system: green foxtail (Setaria viridis, SETVI); test: as above; settings: for phytotoxicity rating SETVI: rating scale 0-100
Outline: as §2

[16] = system: large crabgrass (Digitaria sanguinalis, DIGSA); test: as above; settings: for phytotoxicity rating DIGSA: rating scale 0-100
Outline: as §2

[17] = system: redroot pigweed (Amaranthus retroflexus, AMARE); test: as above; settings: for phytotoxicity rating AMARE: rating scale 0-100
Outline: as §2

[18] = system: johnsongrass (Sorghum halepense, SORHA); test: as above; settings: for phytotoxicity rating SORHA: rating scale 0-100
Outline: as §2

[19] = system: barnyardgrass (Echinochloa crus-galli, ECHCG); test: as above; settings: for phytotoxicity rating ECHCG: rating scale 0-100
Outline: as §2

[20] = post-emerge, 63 g ai/ha, 14 days after application
[21] = post-emerge, 250 g ai/ha, 14 days after application
[22] = Rate 250 g ai/ha, rating scale 0-100 (0 no damage, 100 complete death), 14 days after application

Cc1c(Cl)cc(F)c(-n2c(=O)cc(C(F)(F)F)n(C)c2=O)c1NC(=O)c1ccc2ccccc2c1 [Compound 2-122, 3-[4-chloro-6-fluoro3-methyl-2-(2-naphthoyl)aminophenyl]-1-methyl-6-trifluoromethyl-2,4(1H, 3H)-pyrimidinedione]
Pre-emerge Herbicidal Activity, phytotoxicity rating (0-100), ABUTH ([1]; 63 g ai/ha): 100 | Pre-emerge Herbicidal Activity, phytotoxicity rating (0-100), ABUTH ([1]; 250 g ai/ha): 100 | Pre-emerge Herbicidal Activity, phytotoxicity rating (0-100), AMBEL ([2]; 63 g ai/ha): 30 | Pre-emerge Herbicidal Activity, phytotoxicity rating (0-100), AMBEL ([2]; 250 g ai/ha): 90 | Pre-emerge Herbicidal Activity, phytotoxicity rating (0-100), CASOB ([3]; 63 g ai/ha): 30 | Pre-emerge Herbicidal Activity, phytotoxicity rating (0-100), CASOB ([3]; 250 g ai/ha): 50 | Pre-emerge Herbicidal Activity, phytotoxicity rating (0-100), CHEAL ([4]; 63 g ai/ha): 100 | Pre-emerge Herbicidal Activity, phytotoxicity rating (0-100), CHEAL ([4]; 250 g ai/ha): 100 | Pre-emerge Herbicidal Activity, phytotoxicity rating (0-100), IPOHE ([5]; 63 g ai/ha): 30 | Pre-emerge Herbicidal Activity, phytotoxicity rating (0-100), IPOHE ([5]; 250 g ai/ha): 90 | Pre-emerge Herbicidal Activity, phytotoxicity rating (0-100), SETVI ([6]; 63 g ai/ha): 80 | Pre-emerge Herbicidal Activity, phytotoxicity rating (0-100), SETVI ([6]; 250 g ai/ha): 100 | Pre-emerge Herbicidal Activity, phytotoxicity rating (0-100), DIGSA ([7]; 63 g ai/ha): 100 | Pre-emerge Herbicidal Activity, phytotoxicity rating (0-100), DIGSA ([7]; 250 g ai/ha): 100 | Pre-emerge Herbicidal Activity, phytotoxicity rating (0-100), SORHA ([8]; 63 g ai/ha): 30 | Pre-emerge Herbicidal Activity, phytotoxicity rating (0-100), SORHA ([8]; 250 g ai/ha): 60 | Pre-emerge Herbicidal Activity, phytotoxicity rating (0-100), ECHCG ([9]; 63 g ai/ha): 20 | Pre-emerge Herbicidal Activity, phytotoxicity rating (0-100), ECHCG ([9]; 250 g ai/ha): 80 | Pre-emerge Herbicidal Activity, phytotoxicity rating (0-100), AMARE ([10]; 63 g ai/ha): 100 | Pre-emerge Herbicidal Activity, phytotoxicity rating (0-100), AMARE ([10]; 250 g ai/ha): 100 | phytotoxicity rating ABUTH [11, 20]: 100 | phytotoxicity rating ABUTH [11, 21]: 100 | phytotoxicity rating CASOB [12, 20]: 100 | phytotoxicity rating CASOB [12, 21]: 100 | phytotoxicity rating CHEAL [13, 20]: 100 | phytotoxicity rating CHEAL [13, 21]: 100 | phytotoxicity rating IPOHE [14, 20]: 100 | phytotoxicity rating IPOHE [14, 21]: 80 | phytotoxicity rating SETVI [15, 20]: 90 | phytotoxicity rating SETVI [15, 21]: 95 | phytotoxicity rating DIGSA [16, 20]: 40 | phytotoxicity rating DIGSA [16, 21]: 60 | phytotoxicity rating AMARE [17, 20]: 100 | phytotoxicity rating AMARE [17, 21]: 100 | phytotoxicity rating SORHA [18, 20]: 30 | phytotoxicity rating SORHA [18, 21]: 60 | phytotoxicity rating ECHCG [19, 20]: 30 | phytotoxicity rating ECHCG [19, 21]: 50

O=C(Nc1cc(Cl)ccc1N1C(=O)c2ccccc2C1=O)c1ccc2ccccc2c1 [Compound 13-5, N-[4-chloro-2-(2-naphthoylamino)phenyl]phthalimide]
Pre-emerge herbicidal activity, phytotoxicity rating ABUTH ([1]; 63 g ai/ha): 0 | Pre-emerge herbicidal activity, phytotoxicity rating ABUTH ([1]; 250 g ai/ha): 0 | Pre-emerge herbicidal activity, phytotoxicity rating AMBEL ([2]; 63 g ai/ha): 0 | Pre-emerge herbicidal activity, phytotoxicity rating AMBEL ([2]; 250 g ai/ha): 0 | Pre-emerge herbicidal activity, phytotoxicity rating CASOB ([3]; 63 g ai/ha): 0 | Pre-emerge herbicidal activity, phytotoxicity rating CASOB ([3]; 250 g ai/ha): 0 | Pre-emerge herbicidal activity, phytotoxicity rating CHEAL ([4]; 63 g ai/ha): 20 | Pre-emerge herbicidal activity, phytotoxicity rating CHEAL ([4]; 250 g ai/ha): 50 | Pre-emerge herbicidal activity, phytotoxicity rating IPOHE ([5]; 63 g ai/ha): 0 | Pre-emerge herbicidal activity, phytotoxicity rating IPOHE ([5]; 250 g ai/ha): 0 | Pre-emerge herbicidal activity, phytotoxicity rating SETVI ([6]; 63 g ai/ha): 30 | Pre-emerge herbicidal activity, phytotoxicity rating SETVI ([6]; 250 g ai/ha): 50 | Pre-emerge herbicidal activity, phytotoxicity rating DIGSA ([7]; 63 g ai/ha): 0 | Pre-emerge herbicidal activity, phytotoxicity rating DIGSA ([7]; 250 g ai/ha): 10 | Pre-emerge herbicidal activity, phytotoxicity rating SORHA ([8]; 63 g ai/ha): 0 | Pre-emerge herbicidal activity, phytotoxicity rating SORHA ([8]; 250 g ai/ha): 30 | Pre-emerge herbicidal activity, phytotoxicity rating ECHCG ([9]; 63 g ai/ha): 0 | Pre-emerge herbicidal activity, phytotoxicity rating ECHCG ([9]; 250 g ai/ha): 0 | Pre-emerge herbicidal activity, phytotoxicity rating AMARE ([10]; 63 g ai/ha): 30 | Pre-emerge herbicidal activity, phytotoxicity rating AMARE ([10]; 250 g ai/ha): 95 | pest or weed control at 63 g/ha ([11]; Abutilon theophrasti, post-emergence, 336 h, post-emerge, 63 g ai/ha, phytotoxicity rating 0-100 at 14 days after application, read-out: Post-emerge Herbicidal Activity ABUTH): 70% | Post-emerge Herbicidal Activity, phytotoxicity rating ABUTH [11, 22]: 70 | Post-emerge Herbicidal Activity, phytotoxicity rating CASOB [12, 22]: 30 | pest or weed control at 63 g/ha ([12]; Senna obtusifolia, post-emergence, 336 h, post-emerge, 63 g ai/ha, phytotoxicity rating 0-100 at 14 days after application, read-out: Post-emerge Herbicidal Activity CASOB): 40% | pest or weed control at 63 g/ha ([13]; Chenopodium album, post-emergence, 336 h, post-emerge, 63 g ai/ha, phytotoxicity rating 0-100 at 14 days after application, read-out: Post-emerge Herbicidal Activity CHEAL): 95% | Post-emerge Herbicidal Activity, phytotoxicity rating CHEAL [13, 22]: 90 | pest or weed control at 63 g/ha ([14]; Ipomoea, post-emergence, 336 h, post-emerge, 63 g ai/ha, phytotoxicity rating 0-100 at 14 days after application, read-out: Post-emerge Herbicidal Activity IPOHE): 50% | Post-emerge Herbicidal Activity, phytotoxicity rating IPOHE [14, 22]: 60 | Post-emerge Herbicidal Activity, phytotoxicity rating SETVI [15, 22]: 10 | pest or weed control at 63 g/ha ([15]; Setaria viridis, post-emergence, 336 h, post-emerge, 63 g ai/ha, phytotoxicity rating 0-100 at 14 days after application, read-out: Post-emerge Herbicidal Activity SETVI): 0% | pest or weed control at 63 g/ha ([16]; Digitaria sanguinalis, post-emergence, 336 h, post-emerge, 63 g ai/ha, phytotoxicity rating 0-100 at 14 days after application, read-out: Post-emerge Herbicidal Activity DIGSA): 0% | Post-emerge Herbicidal Activity, phytotoxicity rating DIGSA [16, 22]: 20 | pest or weed control at 63 g/ha ([17]; Amaranthus retroflexus, post-emergence, 336 h, post-emerge, 63 g ai/ha, phytotoxicity rating 0-100 at 14 days after application, read-out: Post-emerge Herbicidal Activity AMARE): 70% | Post-emerge Herbicidal Activity, phytotoxicity rating AMARE [17, 22]: 75 | Post-emerge Herbicidal Activity, phytotoxicity rating SORHA [18, 22]: 0 | pest or weed control at 63 g/ha ([18]; Sorghum halepense, post-emergence, 336 h, post-emerge, 63 g ai/ha, phytotoxicity rating 0-100 at 14 days after application, read-out: Post-emerge Herbicidal Activity SORHA): 0% | pest or weed control at 63 g/ha ([19]; Echinochloa crus-galli, post-emergence, 336 h, post-emerge, 63 g ai/ha, phytotoxicity rating 0-100 at 14 days after application, read-out: Post-emerge Herbicidal Activity ECHCG): 0% | Post-emerge Herbicidal Activity, phytotoxicity rating ECHCG [19, 22]: 0
